Experimental data reported in patent publication US12419886B2, “Parenteral formulations and uses thereof” (Eustralis Pharmaceuticals Limited, priority 2018, dated 2025).

Legend:
[1] = Solubility of Compound (Ia) 2HCl in water (ethanol also assessed); format: physicochemical
Experimental: Ethanol was also assessed as part of this study.

[2] = Excipient compatibility, 14 days stability (HPLC assay and related substances); format: physicochemical; conditions: 25° C./60% RH and 40° C./75% RH
Experimental: The successful formulation characteristics of a solution are its solubility and stability. The solvent system chosen must also be able to solubilise the drug at the desired concentration and must provide an environment where the drug has sufficient chemical stability. This study is an initial comparison of 2 weeks stability with potential excipients, and the % degradation was assessed. The excipients assessed are those typically found in liquid and freeze dried formulations. Excipient compatibility was investigated by subjecting a series of mixes containing active and excipient to elevated temperature for a nominated period and monitoring any degradation.
The solutions that were soluble in Table 3 were also prepared using Kolliphor 400 mg/mL in water and with Tween 80 as a solubiliser. These solutions were placed on stability at 25° C./60% RH and 40° C./75% RH for 14 days. The formulations was assessed for assay and related substances after 14 days of storage. Refer to Table 4 and 5 for the results.

Cc1ccccc1-c1cc(N2CCN(C)CC2)ncc1C(=O)N(C)Cc1cc(C(F)(F)F)cc(C(F)(F)F)c1 [Compound (Ia) 2HCl]
pH of solution in water ([1]; 5 mg/mL): 2.39 | Result (solubility in water) ([1]; 5 mg/mL (50 mg in 10 mL water)): Very soluble | pH of solution in water ([1]; 10 mg/mL): 2.14 | Result (solubility in water) ([1]; 10 mg/mL (100 mg in 10 mL water)): Very soluble | pH of solution in water ([1]; 15 mg/mL): 2.02 | Result (solubility in water) ([1]; 15 mg/mL (150 mg in 10 mL water)): Soluble | pH of solution in water ([1]; 20 mg/mL): 1.87 | Result (solubility in water) ([1]; 20 mg/mL (200 mg in 10 mL water)): Soluble | pH of solution in water ([1]; 25 mg/mL): 1.81 | Result (solubility in water) ([1]; 25 mg/mL (250 mg in 10 mL water)): Soluble | pH of solution in water ([1]; 30 mg/mL): 1.75 | Result (solubility in water) ([1]; 30 mg/mL (300 mg in 10 mL water)): Soluble | pH of solution in water ([1]; 35 mg/mL): 1.72 | Result (solubility in water) ([1]; 35 mg/mL (350 mg in 10 mL water)): Soluble | pH of solution in water ([1]; 40 mg/mL): 1.66 | Result (solubility in water) ([1]; 40 mg/mL (400 mg in 10 mL water)): Soluble | pH of solution in water ([1]; 45 mg/mL): 1.54 | Result (solubility in water) ([1]; 45 mg/mL (450 mg in 10 mL water)): Soluble | pH of solution in water ([1]; 50 mg/mL): 1.52 | Result (solubility in water) ([1]; 50 mg/mL (500 mg in 10 mL water)): Soluble | Solubility ([1]; 50 mg/mL, sentence follows mention of ethanol): freely soluble | Stability in a range of formulations (conclusion) [2]: quite stable
